These results are taken from ChEMBL document CHEMBL6087474, “Discovery of an Efficacious RET PROTAC Degrader with Enhanced Antiproliferative Activity against Resistant Cancer Cells Harboring RET Solvent-Front Mutations” (J Med Chem, 2025).

For orientation: Emax means the maximal effect, on the per cent scale that the assay sets. Broadly, the IC50 is the concentration that gives 50% inhibition. The AUC is concentration integrated over time. A high value points to more exposure. What is called DC50 is the concentration at which degradation of the target reaches its halfway point.

The test system of series [1] is BaF3. Put plainly: PROTAC activity at CRBN/KIF5B-RET (unknown origin) expressed in mouse BaF3 cells assessed as induction of RET degradation by measuring maximal efficacy measured after 6 hrs by Western blot analysis relative to control. It is filed as cell-based. Particulars: Homo sapiens. Background: In western blotting, separated proteins are transferred to a membrane and probed.

Series [2] concerns the target Proto-oncogene tyrosine-protein kinase receptor Ret (Homo sapiens, UniProt P07949). Put plainly: Inhibition of wildtype RET (unknown origin) in presence of ATP by FRET-based Z'-Lyte assay.
Series [3] concerns Kinesin-1 heavy chain/ Tyrosine-protein kinase receptor RET (Homo sapiens), P07949+P33176 [G810C]. Kind of series: In vivo PROTAC activity at CRBN/KIF5B-RET-G810C mutant in male BALB/c mouse model implanted with mouse BaF3 cells stably expressing KIF5B-RET-G810C mutant assessed as induction of RET degradation in tumor at 30 mg/kg, ip measured after 3 days by Western blotting analysis relative to control. It is filed as functional, organism-based. To be noted: time 3.0 day.

Series [4] deals with BaF3. Put plainly: Antiproliferative activity against mouse BaF3 cells stably expressing KIF5B-RET-V804M mutant incubated for 72 hrs by CCK-8 assay. It is filed as functional, cell-based. Particulars: BaF3, 72 h. On the technique in general: Tetrazolium assays rely on reduction of a dye to a coloured formazan, in cell work by metabolically active cells.
A short description of series [5]: AUC in male ICR mouse at 10 mg/kg, ip measured after 24 hrs by LC-MS/MS analysis. To be noted: in vivo. It is filed as ADME, organism-based.
The nature of series [6]: PROTAC activity at CRBN/KIF5B-RET-V804M mutant (unknown origin) expressed in mouse BaF3 cells assessed as induction of RET degradation measured after 6 hrs by Western blot analysis. Particulars: BaF3, 6 h. It is filed as cell-based.
Series [7] can be described thus: Effect on Shc protein level in mouse BaF3 cells stably expressing KIF5B-RET-G810C mutant assessed as fold change at 300 nM measured after 6 hrs by Western blot analysis (reference value: 1). It is filed as functional.
A short description of series [8]: Effect on RET protein level in mouse BaF3 cells stably expressing KIF5B-RET-G810R mutant assessed as fold change at 300 nM measured after 6 hrs by Western blot analysis (reference value: 1). Type of series: functional.
Series [9] in a line: Effect on Shc protein level in mouse BaF3 cells stably expressing KIF5B-RET-G810R mutant assessed as fold change at 33.3 nM measured after 6 hrs by Western blot analysis (reference value: 1). It is filed as functional.
The nature of series [10]: Induction of apoptosis in mouse BaF3 cells stably expressing KIF5B-RET-G810C mutant assessed as viable cells at 300 nM measured after 48 hrs by Annexin V-FITC/7-AAD staining based flow cytometric analysis (reference value: 86.58 %). Type of series: functional. To be noted: read-out: Activity.
Series [11] is described as follows: Effect on Shc protein level in mouse BaF3 cells stably expressing KIF5B-RET-G810R mutant assessed as fold change at 300 nM measured after 6 hrs by Western blot analysis (reference value: 1). It is filed as functional.
The nature of series [12]: Effect on RET protein level in mouse BaF3 cells stably expressing KIF5B-RET-V804M mutant assessed as fold change at 300 nM measured after 6 hrs by Western blot analysis (reference value: 1). Type of series: functional.
Series [13] in a line: Induction of apoptosis in mouse BaF3 cells stably expressing wildtype KIF5B-RET fusion protein assessed as early apoptotic cells at 11.1 nM measured after 48 hrs by Annexin V-FITC/7-AAD staining based flow cytometric analysis (reference value: 9.92 %). It is filed as functional. A general note: In flow cytometry, cells or beads pass a laser one at a time.
A short description of series [14]: Effect on Shc protein level in mouse BaF3 cells stably expressing KIF5B-RET-G810R mutant assessed as fold change at 100 nM measured after 6 hrs by Western blot analysis (reference value: 1). Type of series: functional.
Series [15] is described as follows: Effect on RET protein level in mouse BaF3 cells stably expressing wildtype KIF5B-RET assessed as fold change at 100 nM measured after 6 hrs by Western blot analysis (reference value: 1). Type of series: functional.
The nature of series [16]: Effect on Shc protein level in mouse BaF3 cells stably expressing KIF5B-RET-G810R mutant assessed as fold change at 11.1 nM measured after 6 hrs by Western blot analysis (reference value: 1). Type of series: functional.

Chain of Proto-oncogene tyrosine-protein kinase receptor Ret (P07949 whole entry): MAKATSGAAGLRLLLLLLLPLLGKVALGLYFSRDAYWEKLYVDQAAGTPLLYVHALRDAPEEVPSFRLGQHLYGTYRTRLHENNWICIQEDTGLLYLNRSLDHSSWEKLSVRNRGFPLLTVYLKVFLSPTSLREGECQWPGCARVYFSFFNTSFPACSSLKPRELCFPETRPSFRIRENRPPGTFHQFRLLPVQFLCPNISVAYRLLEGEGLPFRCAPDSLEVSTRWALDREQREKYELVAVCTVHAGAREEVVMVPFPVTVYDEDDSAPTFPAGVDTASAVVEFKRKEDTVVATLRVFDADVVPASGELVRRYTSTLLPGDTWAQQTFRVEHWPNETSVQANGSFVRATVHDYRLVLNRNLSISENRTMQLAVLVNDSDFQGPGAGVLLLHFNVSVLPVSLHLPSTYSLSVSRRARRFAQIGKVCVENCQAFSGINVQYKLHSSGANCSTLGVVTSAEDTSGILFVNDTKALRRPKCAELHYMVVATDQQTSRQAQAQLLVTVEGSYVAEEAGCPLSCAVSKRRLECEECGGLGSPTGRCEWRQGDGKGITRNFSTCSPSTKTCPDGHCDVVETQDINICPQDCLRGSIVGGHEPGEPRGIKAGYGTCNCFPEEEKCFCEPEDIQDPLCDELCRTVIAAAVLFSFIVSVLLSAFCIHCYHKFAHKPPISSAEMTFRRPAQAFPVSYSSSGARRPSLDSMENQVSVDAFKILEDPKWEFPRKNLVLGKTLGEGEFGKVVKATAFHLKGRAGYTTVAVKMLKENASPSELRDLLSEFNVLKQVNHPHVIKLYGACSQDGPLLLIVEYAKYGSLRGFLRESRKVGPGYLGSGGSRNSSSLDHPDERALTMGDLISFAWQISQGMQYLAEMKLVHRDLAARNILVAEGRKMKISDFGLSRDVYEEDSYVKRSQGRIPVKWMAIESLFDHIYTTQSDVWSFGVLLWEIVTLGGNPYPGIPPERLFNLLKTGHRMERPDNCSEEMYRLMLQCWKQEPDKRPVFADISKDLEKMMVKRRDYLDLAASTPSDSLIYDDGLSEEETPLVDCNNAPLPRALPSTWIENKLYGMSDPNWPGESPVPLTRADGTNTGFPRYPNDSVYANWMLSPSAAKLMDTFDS

As for `COc1ccc(CN2C3CC2CN(c2ccc(-c4cc(-c5cnn(C6CCN(CCCCCC#Cc7cccc8c7CN(C7CCC(=O)NC7=O)C8=O)CC6)c5)cn5ncc(C#N)c45)cn2)C3)cn1` (stereo unspecified), in series [1], the Emax amounted to 83%. Further, the IC50 in [2] is 5.7 nM; in series [4], 40 nM. For the same compound, the Activity in series [3] was 55.3%; in series [13] it was 11.31%. For the same compound, the AUC at 24 h in series [5] is 680 ng·h/mL. Also, the DC50 in series [6] was 17.2 nM. Also, the “fold change (FC)” value in series [7] is on record as 1; in series [8], 0.6; in series [9], 0.9; in [11], 0.9; in [12], 0.1; in series [14], 0.9. For the same compound, the “fold change (FC)” value in series [15] was found to be 0.3; in series [16] it was 0.9. Besides, the viability at 0.3 µM in series [10] was determined as 63.1%.
